Laboratory results: patent US4728650A, “3,4-dihydrobenzopyran derivatives and medicinal uses thereof” (Kuraray Co., Ltd., priority 1985, dated 1988)
Counter-ions that a name gives are not always drawn.

Tests used:
[1] = Expectorant action: tracheal secretion of fluorescein sodium in rats; format: in vivo, Wistar rats (male); conditions: 50 mg/kg oral
Procedure: Male Wistar rats (body weights, 280-320 g) were used in groups of 7 animals. Each test compound was orally administered in dose of 50 mg/kg body weight to rats. Immediately after administration, 0.3 ml/100 g (body weight of rat) of a 1% aqueous solution of fluorescein sodium was injected into the caudal vein. One hour after administration of the test compound, pentobarbital sodium 100 mg/kg (body weight of rat) was injected intraperitoneally so that deep anesthesia might cause the rat to die. Then, the trachea was exposed and an incision was made in the trachea. A sonde was inserted thereinto and ligation was made. To the sonde was connected a syringe containing 10 ml of a 5% solution of sodium hydrogen carbonate kept at 37° C. and 4 ml of the solution of sodium hydrogen carbonate was injected into the lung. After 5 minutes, the fluid in the lung was removed. After this procedure of injection and removal was repeated three times, the fluid removed from the lung was filtered and the filtrate was made up with water to make 20 ml. The intensity of fluroescence was determined at the excitation wave length of 491 nm and the fluorescence wave length of 510 nm using a spectrophotometer (HITACHI model 650-10, Hitachi, Ltd.). The amount of fluorescein sodium secreted into the trachea was estimated from the intensity of fluorescence. Each test compound was administered as suspended in a gum arabic solution in concentration of 5%.

[2] = Antitussive action: coughing induced by tracheal stimulation in guinea pigs; format: in vivo; conditions: Cavia porcellus, ip; Table 17; intraperitoneal; up and down method
Procedure: Pentobarbital sodium 15 mg/kg was injected intraperitoneally to guinea pigs (body weight, 400 g or more) and under slight anesthesia, each guinea pig was immobilized in dorsal position. The skin in the anterior cervical region was incised along the midline and the trachea was exposed so as not to injure the subcutaneous tissue. A small hole was drilled in the anterior aspect of the trachea at a location 1.5 cm distant from the clavicle and through this hole a stimulating hair was inserted over a distance of 3 cm at an angle of 30° from the longitudinal axis of the trachea and, after one second, was pulled out. The stimulation was given 5 and 20 minutes after drilling of the small hole, and after occurrence of coughing was confirmed, each test compound was injected intraperitoneally. At 5 time points, i.e. 15, 30, 60, 90 and 120 minutes after injection, it was checked whether stimulation caused coughing in the same manner as described above. If coughing was not induced, even only once on the five occasions of stimulation, the test compound was regarded as effective, and if cough appeared on all the 5 occasions of stimulation,the test compound was regarded as ineffective. The ED50 value (mg/kg) was determined by the up and down method using 10 guinea pigs [See K. A. Brownlee et al., J. Am. Stat. Assoc. 48, 262 (1953)]. As a stimulating hair, one porcine bristle, about 5 cm long, was used.
After completion of the study, the skin and wound opening of each guinea pig were fully disinfected with acrinol solution and the skin was sutured. Then, the guniea pigs were maintained as usual. The guinea pigs were not vigorous on the day following the test, with body weights decreased, but recovered after one week. After the lapse of 10 days or more, the animals were resubmitted to the test.

[3] = Stress ulcer (water immersion stress) in mice; format: in vivo, mice (ddK strain, male); conditions: Table 1, 25 mg/kg p.o.
Procedure: Male mice of ddK strain (body weights, 18-20 g) were placed in a stress cage in groups of 6 animals and immersed down to the level of the xiphoid process in a water bath at 22±1° C. to give a stress. Five hours later the mice were raised from the water bath and the stomach was removed under ether anesthesia. Into the stomach was infused 1.2 ml of a 10% aqueous solution of formaldehyde and, then, the stomach was immersed in a 10% aqueous solution of formaldehyde for 10 minutes for fixation of the tissue. After fixation, an incision was made along the greater curvature for observing ulcers which had appeared in the glandular portion of the stomach. The degree of ulceration was classified according to the following ulcer index scale and the % inhibition of ulcer was estimated.
2: Hemorrhage and erosion
3: Severe hemorrhage and erosion
Each test compound was orally administered, as suspended in a gum arabic solution in concentration of 5%, to mice 10 minutes before stress loading.

[4] = Acute toxicity in mice, oral; parameters: species or system ddK strain); conditions: mouse, in vivo, male ddK mice, 10 animals per group
Procedure: The 3,4-dihydrobenzopyran compound [I] has been confirmed to be low in toxicity. […] The corresponding values of Compounds (2) to (11) were respectively more than 2,000 mg/kg, and those of compounds (12) to (36) were all more than 3,500 mg/kg.

[5] = Hydrochloric acid-ethanol-induced ulcer in rats; format: in vivo, Wistar rats (male)
Procedure: Male Wistar rats (body weights, 170-210 g) were used in groups of 6 to 8 animals. Indomethacin, 20 mg/kg body weight, was injected subcutaneously to rats which had been deprived of food for 24 hours. After 7 hours, the stomach was excised under ether anesthesia. A 10% aqueous solution of formaldehyde was infused into the stomach until the stomach was inflated and, then, the stomach was immersed in a 10% aqueous solution of formaldehyde for 10 minutes for fixation of the tissue. After fixation, an incision was made along the greater curvature and the length of ulcers occurring in the glandular portion of the stomach was measured. The total length of ulcers occurring in a rat was taken as an ulcer index. Each test compound was orally administered, as suspended in a gum arabic solution in concentration of 5%, to rats 10 minutes before subcutaneous injection of indomethacin. Male Wistar rats (body weights, 160-190 g) were used in groups of 6 to 8 animals. One milliliter of a 60% aqueous solution of ethanol containing 150 mM hydrochloric acid was administered orally to rats which had been deprived of food for 24 hours. After one hour, the stomach was excised under ether anesthesia. In a manner similar to that described in study for indomethacin-induced ulcer, the ulcer index was determined. Each test compound was orally administered, as suspended in a gum arabic solution in concentration of 5%, to rats 1 hour before administration of hydrochloric acid-ethanol.

[6] = Pyloric ligation-induced ulcer (Shay ulcer) in rats; format: in vivo, Wistar rats (male); conditions: Table 2, 50 mg/kg i.d.
Procedure: Male Wistar rats (body weights, 180-200 g) were used in groups of 7 animals. After 48-hour fasting, laparotomy was performed under ether anesthesia and the pylorus was ligated with a suture. After 13 hours, the stomach was isolated under ether anesthesia and gastric juice was collected. The gastric juice was centrifuged at 3,000 r.p.m. for 10 minutes and the volume and pH value of gastric juice were determined. The pH value was determined by using pH paper. After collection of gastric juice, a 10% aqueous solution of formaldehyde was infused into the stomach until the stomach was inflated. Then, the stomach was immersed in a 10% aqueous solution of formaldehyde for 10 minutes for fixation of the tissue. After fixation, an incision was made along the greater curvature for observing ulcers which had developed in the glandular portion of the stomach. The degree of ulcer was classified according to the following ulcer index scale.
2: 1-5 small ulcers (<3 mm in diameter)
3: Six or more small ulcers or one large ulcer (>3 mm in diameter)
4: Two or more large ulcers
Each test compound was administered, as suspended in a gum arabic solution in concentration of 5%, into the duodenum immediately after pyloric ligation.

[7] = Indomethacin-induced ulcer in rats; format: in vivo, Wistar rats (male); conditions: Table 3, 50 mg/kg p.o.
Procedure: Male Wistar rats (body weights, 170-210 g) were used in groups of 6 to 8 animals. Indomethacin, 20 mg/kg body weight, was injected subcutaneously to rats which had been deprived of food for 24 hours. After 7 hours, the stomach was excised under ether anesthesia. A 10% aqueous solution of formaldehyde was infused into the stomach until the stomach was inflated and, then, the stomach was immersed in a 10% aqueous solution of formaldehyde for 10 minutes for fixation of the tissue. After fixation, an incision was made along the greater curvature and the length of ulcers occurring in the glandular portion of the stomach was measured. The total length of ulcers occurring in a rat was taken as an ulcer index. Each test compound was orally administered, as suspended in a gum arabic solution in concentration of 5%, to rats 10 minutes before subcutaneous injection of indomethacin. The doses of test compounds and the ulcer indices for treated and untreated rats are shown in Table 3 for purposes of comparison. The % inhibition of ulcer by each test compound as estimated from the ulcer index is also presented in the same table.

Question: Which “Secretory amount (mean ± S.E.)” value ([1]; Table 13, control 5.30 ± 0.40) does the source give for `CCOC(CN1CCN(CC(C)C(=O)c2ccccc2)CC1)c1ccccc1` (stereo not drawn) [Eprazinone hydrochloride, 3-[4-(β-ethoxyphenethyl)-1-piperadinyl]-2-methylpropiophenone hydrochloride, reference compound] here?
Answer: Its value is 5.26 ± 0.40 μg/100 g (body weight of rat)/.

Question: What about the “Secretory amount (mean ± S.E.)” value ([1]; Table 14, control 1.60 ± 0.18) of the same compound?
Answer: The value was 2.67 ± 0.18 μg/100 g (body weight of rat)/.

Question: And the “Secretory amount (mean ± S.E.)” value ([1]; Table 16, control 6.455 ± 0.766)?
Answer: The value was 5.736 ± 0.369 μg/100 g (body weight of rat)/.

Question: And the ED50 [2]?
Answer: The ED50 was 122 mg/kg.

Question: What does the source list for `COc1c(C)c(C)c2c(c1C)CCC(C)(CC(=O)NC(=N)N)O2` (stereo not drawn) [Compound (1), N-(3,4-Dihydro-6-methoxy-2,5,7,8-tetramethyl-2H-benzopyran-2-yl)acetylguanidine]?
Answer: % Inhibition of ulcer [3]: 61.98%; Ulcer index (mean ± S.E.) ([3]; control 2.63 ± 0.18): 1.00 ± 0.63 mm; LD50 [4]: 3560 mg/kg; inhibition in vivo at 25 mg/kg ([5]; Rattus norvegicus, po, 1 h, Table 7, 25 mg/kg p.o.): 91.1%; Ulcer index (mean ± S.E.) ([5]; Table 4, 50 mg/kg p.o., control 7.36 ± 1.23): 0.39 ± 0.19 mm; pH value of gastric juice ([6]; control 1.77 ± 0.54): 2.07 ± 0.94; Volume of gastric juice ([6]; control 5.09 ± 0.40): 3.36 ± 0.90 ml/100 g body weight; Ulcer index (mean ± S.E.) ([6]; scale 0-5, control 3.86 ± 0.40): 2.33 ± 0.42; % Inhibition of ulcer [7]: 77.80%; Ulcer index (mean ± S.E.) ([7]; control 10.36 ± 2.07): 2.30 ± 0.58 mm

Question: For `COc1cc(C(=O)N2CCN(CCC3(C)CCc4c(C)c(OC)c(C)c(C)c4O3)CC2)cc(OC)c1OC` (stereo not drawn) [Compound (17), 3,4-Dihydro-6-methoxy-2-[2-[4-(3,4,5-trimethoxybenzoyl)piperazin-1-yl]ethyl]-2,5,7,8-tetramethyl-2H-benzopyran], which “Secretory amount (mean ± S.E.)” value ([1]; Table 13, control 5.30 ± 0.40) is on record?
Answer: The value was 7.90 ± 0.72 μg/100 g (body weight of rat)/.

Question: And the “Secretory amount (mean ± S.E.)” value ([1]; Table 15, control 5.20 ± 0.78)?
Answer: The value was 9.44 ± 1.14 μg/100 g (body weight of rat)/.

Question: And the ED50 [2]?
Answer: Its ED50 is 113 mg/kg.

Question: And the inhibition in vivo at 50 mg/kg ([5]; Rattus norvegicus, po, 1 h, Table 9, 50 mg/kg p.o.)?
Answer: Its inhibition in vivo at 50 mg/kg is 65.7%.

Question: What about the “Ulcer index (mean ± S.E.)” value ([5]; Table 9, 50 mg/kg p.o., control 7.22 ± 0.36) of the same compound?
Answer: Its value is 2.48 ± 0.68 mm.

Question: Which results are given for `COc1ccc(C(=O)N2CCN(CCC3(C)CCc4c(C)c(OC)c(C)c(C)c4O3)CC2)cc1` (stereo not drawn) [Compound (19), 1-[2-(3,4-Dihydro-6-methoxy-2,5,7,8-tetramethyl-2H-benzopyran-2-yl)ethyl]-4-(4-methoxybenzoyl)piperazine]?
Answer: Secretory amount (mean ± S.E.) ([1]; Table 13, control 5.30 ± 0.40): 8.12 ± 0.58 μg/100 g (body weight of rat)/; ED50 [2]: 50.1 mg/kg
